This is an account of results in patent US7767685B2, “Adenosine A2B receptor antagonists” (King Pharmaceuticals Research and Development, Inc., priority 2006, dated 2010).

A word on the melting point: it is the temperature of the solid-liquid transition. As a reminder, the Ki is a dissociation constant, usually derived from enzyme kinetics or from competition with a known ligand.

Data set [1] concerns the target T1, human A1 adenosine receptors (Homo sapiens, UniProt P30542).
T1 construct: expressed in transfected cells; host or cells: CHO cells (membranes)
T1 sequence (P30542 1-326): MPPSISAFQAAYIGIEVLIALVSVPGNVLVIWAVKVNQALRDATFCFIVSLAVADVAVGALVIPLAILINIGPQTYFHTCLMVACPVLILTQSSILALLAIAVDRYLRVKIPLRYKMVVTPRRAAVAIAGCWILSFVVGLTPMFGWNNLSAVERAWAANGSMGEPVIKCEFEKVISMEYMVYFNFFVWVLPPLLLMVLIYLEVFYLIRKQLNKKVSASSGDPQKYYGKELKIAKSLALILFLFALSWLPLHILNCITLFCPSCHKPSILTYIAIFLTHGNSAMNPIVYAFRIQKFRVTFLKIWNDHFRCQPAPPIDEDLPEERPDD
Briefly: Displacement of [3H]DPCPX binding at human A1 adenosine receptors expressed in CHO cells. As to conditions: [3H]DPCPX displacement, n = 3-6, geometric mean (95% confidence limits), read-out: Ki hA1. The method, then:
The human adenosine receptors have been transfected in CHO cells according with the method previously described by Klotz et al. (Naunyn-Schmied. Arch Pharm. 1998, 357: 1-9). Briefly, the cells are grown adherently and maintained in Dulbecco's Modified Eagles Medium with nutrient mixture F12 (DMEM/F12) without nucleosides, containing 10% fetal calf serum, penicillin (100 U/mL), streptomycin (100 μg/mL), L-glutamine (2 mM) and Geneticin (G418, 0.2 mg/ml) at 37° C. in 5% CO2/95% air. For membrane preparation the culture medium is removed and the cells are washed with phosphate-buffered saline and scraped off T75 flasks in ice-cold hypo tonic buffer (5 mM Tris HCl, 1 mM EDTA, pH 7.4). The cell suspension is homogenized with Polytron, the homogenate is spun for 10 min at 1000×g and the supernatant is then centrifuged for 30 min at 100,000×g. The membrane pellet is suspended in 50 mM Tris HCl buffer (pH 7.4) for A1 adenosine receptors, in 50 mM Tris HCl, 10 mM MgCl2 (pH 7.4) for A2A adenosine receptors, in 50 mM Tris HCl, 10 mM MgCl2, 1 mM EDTA (pH 7.4) for A2B and A3 adenosine receptors.
All new synthesized compounds have been tested to evaluate their affinity to human A1, A2A, A2B and A3 adenosine receptors. Displacement experiments of [^3H]-DPCPX to CHO cells transfected with the human recombinant A1 adenosine receptors are performed for 120 min at 25° C. incubating diluted membranes (50 μg of protein/assay) and at least 6-8 different concentrations of examined antagonists (Varani et al., Mol. Pharmacol., 2000, 57: 968-975). Non-specific binding is determined in the presence of 10 μM of CHA and this is always ≦10% of the total binding. Binding of [^3H]-ZM 241385 to CHO cells transfected with the human recombinant A2A adenosine receptors is performed using a suspension of membranes (50 μg of protein/assay) and at least 6-8 different concentrations of studied antagonists for an incubation time of 60 min at 4° C. Non-specific binding is determined in the presence of 1 μM ZM 241385 and is about 20% of total binding. Competition binding experiments of [^3H]-MRE 2029F20 to CHO cells transfected with the human recombinant A2B adenosine receptors are carried out incubating for 120 min at 4° C. diluted membranes (50 μg of protein/assay) and at least 6-8 different concentrations of examined compounds. Non-specific binding is defined as binding in the presence of 1 μM MRE 3029F20 and is about 25% of total binding. Competition binding experiments of [^3H]-MRE 3008F20 to CHO cells transfected with the human recombinant A3 adenosine receptors^5 are carried out incubating for 120 min at 4° C. diluted membranes (50 μg of protein/assay) and at least 6-8 different concentrations of examined ligands. Non-specific binding is defined as binding in the presence of 1 μM MRE 3008F20 and is about 25% of total binding. Bound and free radioactivity are separated by filtering the assay mixture through Whatman GF/B glass fiber filters using a Micro-Mate 196 cell harvester (Packard Instrument Co.). The filter bound radioactivity is counted on a Top Count (efficiency 57%) with Micro-Scint 20.
The protein concentration is determined according to a Bio-Rad method (Bradford, Anal Biochem. 1976, 72: 248-254) with bovine albumin as a standard reference. Inhibitory binding constant, Ki, values are calculated from those of IC50 according to Cheng & Prusoff equation (Biochem. Pharmacol 1973, 22: 3099-3108): Ki=IC50/(1+[C*]/KD*) where [C*] is the concentration of the radioligand and KD* its dissociation constant. A weighted non linear least-squares curve fitting program LIGAND (Munson et al., Anal. Biochem 1980, 107: 220-239) is used for computer analysis of inhibition experiments Data are expressed as geometric mean with 95% confidence limits in parentheses. Examples of Animal Models
A general note: Loss of bound radioactivity is the signal in a displacement assay; it reports binding, not function.

A value given as a limit tells only on which side of the number the result lay.

Take `CCCn1c(=O)c2[nH]c(-c3cc(C)n(CC(=O)Nc4ccccc4)n3)nc2n(CCC)c1=O` [Example 1, 2-[3-(2,6-Dioxo-1,3-dipropyl-2,3,6,7-tetrahydro-1H-purin-8-yl)-5-methyl-pyrazol-1-yl]-N-phenyl-acetamide]: the melting point fell in the range of 255 to 257 °C. For the same compound, the Ki in data set [1] came to 0.35 µM.

In the case of `CCCn1c(=O)c2[nH]c(-c3cc(C)n(CC(=O)Nc4ccc(I)cc4)n3)nc2n(CCC)c1=O` [Example 2, 2-[3-(2,6-Dioxo-1,3-dipropyl-2,3,6,7-tetrahydro-1H-purin-8-yl)-5-methyl-pyrazol-1-yl]-N-(4-iodophenyl)-acetamide], the melting point was 286 to 289 °C. The Ki in data set [1] is more than 1 µM.

`CCCn1c(=O)c2[nH]c(-c3cc(C)n(CC(=O)Nc4ccc(F)cc4)n3)nc2n(CCC)c1=O` [Example 5, 2-[3-(2,6-Dioxo-1,3-dipropyl-2,3,6,7-tetrahydro-1H-purin-8-yl)-5-methyl-pyrazol-1-yl]-N-(4-fluoro-phenyl)-acetamide] displayed a melting point of 205 to 207 °C. Also, in data set [1], the Ki is 0.5 µM.

`CCCn1c(=O)c2[nH]c(-c3cc(C)n(CC(=O)Nc4ccc(OC)cc4)n3)nc2n(CCC)c1=O` [Example 6, 2-[3-(2,6-Dioxo-1,3-dipropyl-2,3,6,7-tetrahydro-1H-purin-8-yl)-5-methyl-pyrazol-1-yl]-N-(4-methoxyphenyl)-acetamide] showed a melting point of 293 to 296 °C. The Ki in data set [1] was more than 1 µM. In turn, `CCCn1c(=O)c2[nH]c(-c3cc(C)n(CC(=O)Nc4ccc(C)c(C)c4)n3)nc2n(CCC)c1=O` [Example 7, 2-[3-(2,6-Dioxo-1,3-dipropyl-2,3,6,7-tetrahydro-1H-purin-8-yl)-5-methyl-pyrazol-1-yl]-N-(3,4-dimethylphenyl)-acetamide] displayed a melting point of 261 to 265 °C. Further, the Ki in data set [1] is more than 1 µM. For the compound `CCCn1c(=O)c2[nH]c(-c3cc(C)n(CC(=O)Nc4ccc(OC)c(OC)c4)n3)nc2n(CCC)c1=O` [Example 8, 2-[3-(2,6-Dioxo-1,3-dipropyl-2,3,6,7-tetrahydro-1H-purin-8-yl)-5-methyl-pyrazol-1-yl]-N-(3,4-dimethoxyphenyl)-acetamide], the melting point lay within 285 to 290 °C. In addition, the Ki in data set [1] is more than 1 µM.

As for `CCCn1c(=O)c2[nH]c(-c3ccn(CC(=O)Nc4ccc(Cl)cc4)n3)nc2n(CCC)c1=O` [Example 10, 2-[3-(2,6-Dioxo-1,3-dipropyl-2,3,6,7-tetrahydro-1H-purin-8-yl)-pyrazol-1-yl]-N-(4-chloro-phenyl)-acetamide], the melting point was in the range of 283 to 285 °C. Also, the Ki in data set [1] was determined as 0.14 µM. Regarding `CCCn1c(=O)c2[nH]c(-c3cc(C)n(CC(=O)Nc4ccc(C(C)CC)cc4)n3)nc2n(CCC)c1=O` (stereo not drawn) [Example 12, 2-[3-(2,6-Dioxo-1,3-dipropyl-2,3,6,7-tetrahydro-1H-purin-8-yl)-5-methyl-pyrazol-1-yl]-N-(4-sec-butylphenyl)-acetamide], the melting point lay in the range of 268 to 271 °C. For the same compound, the Ki in data set [1] is more than 1 µM. `CCCn1c(=O)c2[nH]c(-c3cc(C)n(CC(=O)Nc4cccc(OC)c4)n3)nc2n(CCC)c1=O` [Example 14, 2-[3-(2,6-Dioxo-1,3-dipropyl-2,3,6,7-tetrahydro-1H-purin-8-yl)-5-methyl-pyrazol-1-yl]-N-(3-methoxylphenyl)-acetamide]: the melting point was 274 to 277 °C. The Ki in data set [1] is 0.48 µM. Consider `CCCn1c(=O)c2[nH]c(-c3cc(C)n(CC(=O)Nc4cccc(Cl)c4)n3)nc2n(CCC)c1=O` [Example 15, 2-[3-(2,6-Dioxo-1,3-dipropyl-2,3,6,7-tetrahydro-1H-purin-8-yl)-5-methyl-pyrazol-1-yl]-N-(3-chlorophenyl)-acetamide], for which the melting point was in the range of 304 to 307 °C. Also, the Ki in data set [1] stood at 0.675 µM.

Consider `CCCn1c(=O)c2[nH]c(-c3cc(C)n(CC(=O)Nc4ccc(Cl)c(Cl)c4)n3)nc2n(CCC)c1=O` [Example 16, 2-[3-(2,6-Dioxo-1,3-dipropyl-2,3,6,7-tetrahydro-1H-purin-8-yl)-5-methyl-pyrazol-1-yl]-N-(3,4-dichlorophenyl)-acetamide], for which the melting point was 298 °C. Besides, in data set [1], the Ki was more than 1 µM. As to `CCCn1c(=O)c2[nH]c(-c3cc(C)n(CC(=O)Nc4ccc(C)cc4)n3)nc2n(CCC)c1=O` [Example 17, 2-[3-(2,6-Dioxo-1,3-dipropyl-2,3,6,7-tetrahydro-1H-purin-8-yl)-5-methyl-pyrazol-1-yl]-N-p-tolyl-acetamide], the melting point is more than 300 °C. In data set [1], the Ki is more than 1 µM. For the compound `CCCn1c(=O)c2[nH]c(-c3nn(CC(=O)Nc4ccc(Cl)cc4)c(C)c3Cl)nc2n(CCC)c1=O` [Example 18, 2-[4-Chloro-3-(2,6-dioxo-1,3-dipropyl-2,3,6,7-tetrahydro-1H-purin-8-yl)-5-methyl-pyrazol-1-yl]-N-(4-chlorophenyl)-acetamide], the Ki in data set [1] is more than 1 µM. In the case of `CCCn1c(=O)c2[nH]c(-c3nn(CC(=O)Nc4ccc(Cl)cc4)c(C)c3Br)nc2n(CCC)c1=O` [Example 19, 2-[4-Bromo-3-(2,6-dioxo-1,3-dipropyl-2,3,6,7-tetrahydro-1H-purin-8-yl)-5-methyl-pyrazol-1-yl]-N-(4-chlorophenyl)-acetamide], the melting point lay in the range of 298 to 299 °C. The Ki in data set [1] is more than 1 µM.
